According to publication PMC6515479, “An Investigation on Glucuronidation Metabolite Identification, Isozyme Contribution, and Species Differences of GL-V9 In Vitro and In Vivo” (Molecules, 2019):

Assays:
Type in all cases: in vitro ADME
[1] = Enzyme kinetics of GL-V9 glucuronidation in monkey liver microsomes (MLMs); conditions: monkey, liver microsomes, pH 7.4; formation of 5-O-glucuronide GL-V9; MLMs, protein 0.1 mg/mL; mean ± SD, n = 3
Procedure: (§1) The composition of the incubation system (200 μL) contained liver microsomes of different species (0.1 mg protein/mL), 5 mM saccharolactone (D-saccharic acid 1,4-lactone monohydrate), 10 mM MgCl2, alamethicin (50 μg/mg protein), Tris-HCl buffer (50 mM, pH 7.4) and GL-V9 (1 μM). After 5 min of preincubation at 37 °C, UDPGA (5 mM) was added to initiate the phase II reaction. Control incubation samples were performed without UDPGA or without substrates (GL-V9). The reaction was terminated by addition of ice-cold methanol (three volumes) after incubation for 1 h at 37 °C. Samples were vortexed, centrifuged at 21,500× g for 10 min and then stored at 4 °C until HPLC-UV-TripleTOF analysis. To confirm that these metabolites are conjugates resulting from glucuronidation reaction, enzymatic hydrolysis of samples was processed. β-glucuronidase (100 KU, Sigma) was added and the hydrolysis was performed overnight at 37 °C. The control samples were carried out without β-glucuronidase under the same condition.
(§2) Enzyme kinetics experiments were carried out in triplicate among five different species, including monkey, beagle dog, rat, mouse, and human. The reaction system and operations are as same as described in Section 4.3. The solutions of GL-V9 were selected over a range of concentrations (0.05, 0.2, 0.5, 1, 2, 5, 10, 20 μM). According to the different metabolic capacity, the protein concentration of liver microsomes of different species is different as shown in Table 1.
(§3) Rates of the glucuronidation of GL-V9 were described as amounts of glucuronides formed per minute per milligram (pmol/min/mg). The calculation model of kinetic parameters was selected by the profile of Eadie-Hofstee plots. It often includes three possibilities: (1) the Eadie-Hofstee plot was linear, the formation rates of glucuronides (V) at different substrate concentrations (C) were fit to the standard Michaelis-Menten calculation of GraphPad Prism (version 6.02, GraphPad Software Inc., Guildford, Surrey, UK); (2) the Eadie-Hofstee plot was atypical kinetic-autoactivation, the rates and concentration were fit with the allosteric sigmoidal function of GraphPad Prism; (3) the Eadie-Hofstee plot was atypical kinetic-biphasic, the rates and concentration were fit with the […] of GraphPad Prism.

[2] = test system: monkey liver microsomes (MLMs); test: as above
Procedure: as §1, §2, §3

[3] = Enzyme kinetics of GL-V9 glucuronidation in mouse liver microsomes (MiceLMs); conditions: mouse, liver microsomes, pH 7.4, formation of 5-O-glucuronide GL-V9, protein 0.2 mg/mL, mean ± SD, n = 3
Procedure: as §1
as §2, with “According to the different metabolic capacity, the protein concentration of liver microsomes of different species is different as shown in Table 1.” left out

[4] = test system: mouse liver microsomes (MiceLMs); test: as above; conditions: formation of 5-O-glucuronide GL-V9, protein 0.2 mg/mL, mean ± SD, n = 3
Procedure: as §1
as §2, with “According to the different metabolic capacity, the protein concentration of liver microsomes of different species is different as shown in Table 1.” left out

rUGT1A3 = molecular target: T1, rUGT1A3 (Homo sapiens, UniProt P35503); test: UGT phenotyping of GL-V9 glucuronidation, rUGT1A3; conditions: GL-V9 0.5, 1, 5 μM, 37 °C, 1 h
T1 construct: purchased Corning (Woburn, MA, USA)
T1 sequence (P35503 29-534): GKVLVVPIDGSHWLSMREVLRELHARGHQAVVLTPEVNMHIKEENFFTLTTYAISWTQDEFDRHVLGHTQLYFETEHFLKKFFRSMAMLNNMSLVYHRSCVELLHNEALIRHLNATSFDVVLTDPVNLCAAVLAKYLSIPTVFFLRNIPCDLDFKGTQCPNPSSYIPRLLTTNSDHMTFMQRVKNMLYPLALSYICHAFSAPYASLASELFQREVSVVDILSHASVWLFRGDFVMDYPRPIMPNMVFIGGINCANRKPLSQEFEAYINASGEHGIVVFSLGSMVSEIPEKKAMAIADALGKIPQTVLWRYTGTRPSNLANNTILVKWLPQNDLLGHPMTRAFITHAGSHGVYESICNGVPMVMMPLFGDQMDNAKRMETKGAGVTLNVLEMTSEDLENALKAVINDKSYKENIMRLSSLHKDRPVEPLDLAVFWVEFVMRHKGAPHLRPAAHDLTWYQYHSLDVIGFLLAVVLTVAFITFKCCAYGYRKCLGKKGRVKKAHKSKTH
Procedure: as §1
(§4) Twelve human recombinant UGT isoforms (rUGT1A1, rUGT1A3, rUGT1A4, rUGT1A6, rUGT1A7, rUGT1A8, rUGT1A9, rUGT1A10, rUGT2B4, rUGT2B7, rUGT2B15, and rUGT2B17) were employed to identify the main UGT enzyme(s) responsible for glucuronidation of GL-V9 under mixture conditions as described in Section 4.3. […]

rUGT1A6 = molecular target: T2, rUGT1A6 (Homo sapiens, UniProt P19224); test: UGT phenotyping of GL-V9 glucuronidation, rUGT1A6; conditions: GL-V9 0.5, 1, 5 μM, 37 °C, 1 h
T2 construct: purchased Corning (Woburn, MA, USA)
T2 sequence (P19224 27-532): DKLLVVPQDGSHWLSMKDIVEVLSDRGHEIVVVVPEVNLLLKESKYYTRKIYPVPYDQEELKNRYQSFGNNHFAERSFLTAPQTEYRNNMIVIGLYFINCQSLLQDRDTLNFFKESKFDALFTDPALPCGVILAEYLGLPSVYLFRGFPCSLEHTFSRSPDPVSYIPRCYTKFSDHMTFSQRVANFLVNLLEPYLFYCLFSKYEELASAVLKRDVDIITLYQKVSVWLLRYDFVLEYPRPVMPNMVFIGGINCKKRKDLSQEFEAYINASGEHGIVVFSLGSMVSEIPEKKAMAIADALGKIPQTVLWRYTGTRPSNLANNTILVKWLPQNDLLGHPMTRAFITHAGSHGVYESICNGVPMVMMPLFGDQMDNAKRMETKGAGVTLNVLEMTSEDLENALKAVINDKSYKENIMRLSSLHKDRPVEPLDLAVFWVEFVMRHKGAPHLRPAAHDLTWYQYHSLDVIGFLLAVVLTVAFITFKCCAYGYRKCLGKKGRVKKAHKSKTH
Procedure: as §1, §4

COc1c(OCCCCN2CCCC2)cc(O)c2c(=O)cc(-c3ccccc3)oc12 [GL-V9]
Km at 1 h [1]: 11.2 ± 0.47 µM | Clint in MLMs relative to DLMs ([2]; MLMs versus DLMs): approximately 9 fold | Glucuronidation rate in MLMs relative to DLMs ([2]; MLMs versus DLMs): > 8 fold | Vmax ([2]; formation of 5-O-glucuronide GL-V9, MLMs, protein 0.1 mg/mL, mean ± SD, n = 3): 182.5 ± 4.92 pmol/min/mg | Km at 1 h [3]: 20.1 ± 1.04 µM | Vmax [4]: 153.2 ± 10.44 pmol/min/mg | Metabolism rate (glucuronidation) (rUGT1A3): too low to be biologically relevant | Metabolism rate (glucuronidation) (rUGT1A6): too low to be biologically relevant
